{
  "source": "patent US8252832B2",
  "about": "“Kinesin inhibitors as cancer therapeutics” (Novartis AG, priority 2007, dated 2012)",
  "type_in_all_cases": "cell-based",
  "key": {"[1]": {"test_system": "NCI60 panel of cell lines", "experiment": "CellTiter-Glo, NCI60 panel, mean of panel", "source_text": "Identification of tumor types that are the most sensitive to the KSP inhibitors of the present invention can be accomplished using an unbiased approach that uses several cell-based assays. The assays chosen were as follows: • CellTiter-Glo®. This is an assay designed to measure ATP concentration in a cell culture, and can be correlated to cell number. Briefly CellTiter-Glo® (Promega Corporation) is a homogeneous method using the single CellTiter-Glo® reagent to detect ATP wherein ATP in the assay drives the activity of a thermostable luciferase to create a luminescent signal which can then be measured and correlated with the number of viable cells. Briefly, for adherent cells, 1,000 to 5,000 cells/well were plated in 96-well plates (100 μl/well) and let to adhere for 24 hours before being treated with drug. For non-adherent cells, 1,000 to 10,000 cells/well were plated in 96-well plates (100 μl/well) and immediately treated with drug. Drug dilutions were prepared in DMSO at 1000 times the final concentration. These dilutions were then diluted 1/100 in growth media before being added to the cells (11 μl/well) to achieve the desired final concentration. […] The enzymatic reaction is coupled to a chemical reaction that uses a tetrazolium salt to form a formazan that is red and can be detected by its absorbance at 490 nm. […]"}, "[2]": {"test_system": "HCT-15", "experiment": "CellTiter-Glo proliferation, 72 hours", "details": "Homo sapiens; Colon, HCT-15, 72 hours", "source_text": "(§1) Cell lines used were as follows: HCT-116 (National Cancer Institute's DCTF Tumor Repository, catalog #NCI-502568, Rockville, Md.), HCT-15 (National Cancer Institute's DCTF Tumor Repository, catalog#NCI-502711, Rockville, Md. available from American Type Tissue Collection, catalog #CLL-225), KB-3-1 (available from DSMZ, Deutsche Sammlung von Mikroorganismen und Zellkulturen GmbH (German Collection of Microorganisms and Cell Cultures—catalog number ACC 158), KB-V1 (available from DSMZ—catalog number ACC 149), AGS (available from American Type Culture Collection, Manassas Va., catalog number CRL-1739™), N87 (available from American Type Culture Collection, Manassas Va., catalog number CRL-5822), Hel92.1.7 (available from American Type Culture Collection, Manassas Va., catalog number TIB 180), K562 (available from American Type Culture Collection, Manassas Va., catalog number CRL-243™), MV4; 11 (American Tissue Culture Collection, Manassas Va., catalog number CRL-9591) and U937 (available from American Type Culture Collection, Manassas Va., catalog number CRL-1593.2).\n(§2) Cells were plated in 96-well plates at densities of about 500 cells per well of a 96-well plate and allowed to grow for 24 hours. The cells were then treated with various concentrations of compounds for 72 hours. Then, 100 μl of CellTiter-Glo® reagent was added (Promega Corporation). CellTiter-Glo® is used in a homogeneous method of determining the number of viable cells using the single CellTiter-Glo® reagent to detect ATP (U.S. Pat. Nos. 6,602,677 and 7,241,584) (see Promega product catalog #G7570). Following the addition of the CellTiter-Glo® reagent, the cells were incubated in the dark for 30 minutes. The amount of luminescence was determined for each well using a Wallac Trilux plate reader, which correlates with the number of cells per well. The number of viable cells in the wells that receive only DMSO (0.5%) served as an indication of 0% inhibition, while wells without cells served as 100% inhibition of cell growth. […] This broad activity is consistent with a compound that is a mitotic inhibitor."}, "[3]": {"test_system": "AGS", "experiment": "CellTiter-Glo proliferation, 72 hours", "details": "Homo sapiens, Gastric", "source_text": "as §1, §2"}, "[4]": {"test_system": "KBV1", "experiment": "CellTiter-Glo proliferation, 72 hours", "details": "Homo sapiens, KB-V1; Epidermoid, KBV1, 72 hours", "source_text": "as §1, §2"}, "[5]": {"test_system": "N87", "experiment": "CellTiter-Glo proliferation, 72 hours", "details": "Gastric, N87, 72 hours", "source_text": "as §1, §2"}, "[6]": {"test_system": "HCT-116", "experiment": "CellTiter-Glo proliferation, 72 hours", "details": "Homo sapiens; Colon, HCT-116, 72 hours", "source_text": "as §1, §2"}, "[7]": {"test_system": "K562", "experiment": "CellTiter-Glo proliferation, 72 hours", "details": "Homo sapiens; Leukemia, K562, 72 hours", "source_text": "as §1, §2"}, "[8]": {"test_system": "Hel92.1.7", "experiment": "CellTiter-Glo proliferation, 72 hours", "details": "Homo sapiens, HEL 92.1.7; Leukemia, Hel92.1.7, 72 hours", "source_text": "as §1, §2"}, "[9]": {"test_system": "KB3.1", "experiment": "CellTiter-Glo proliferation, 72 hours", "details": "Homo sapiens, KB 3-1; Epidermoid, KB3.1, 72 hours", "source_text": "as §1, §2"}},
  "note": "Read-outs that look alike come from different tables or passages of the source.",
  "data": [
    {"smiles": "CC(C)(C)[C@H](c1nc(-c2cc(F)ccc2F)cn1Cc1ccccc1)N(CC[C@H](N)CF)C(=O)CO", "note": "[Compound IIa]", "values": [
      {"measurement": "GI50", "setting": "[1]; GI50 in nM, read-out: Log(GI50), arithmetic mean of panel (converted)", "value": 2.14, "unit": "nM"},
      {"measurement": "GI50", "setting": "[1]; read-out: GI50, geometric mean of panel", "value": 2.14, "unit": "nM"},
      {"measurement": "GI50", "setting": "[2]", "value": 0.3, "unit": "nM"},
      {"measurement": "GI50", "setting": "[3]", "value": 0.2, "unit": "nM"},
      {"measurement": "GI50", "setting": "[4]", "value": 6.5, "unit": "nM"},
      {"measurement": "GI50", "setting": "[5]", "value": 1, "unit": "nM"},
      {"measurement": "GI50", "setting": "[6]", "value": 0.1, "unit": "nM"},
      {"measurement": "GI50", "setting": "[7]", "value": 0.1, "unit": "nM"},
      {"measurement": "GI50", "setting": "[8]", "value": 0.5, "unit": "nM"},
      {"measurement": "GI50", "setting": "[9]", "value": 0.6, "unit": "nM"}
    ]}
  ]
}
